The results in this text go back to patent publication US20160221974A1, “SODIUM CHANNEL MODULATORS FOR THE TREATMENT OF PAIN AND DIABETES” (CHROMOCELL CORPORATION, priority 2013, published 2016).

Each structure is given as a SMILES string. Several values for one entry are separate records, joined by “and”; a condition that tells them apart may be missing. Equal values may be shown once. A value given as a limit tells only on which side of the number the result lay.

In one assay the target is T1, NaV1.7 (Homo sapiens, UniProt Q15858).
T1 construct: expressed in transfected cells
Description: Patchliner Electrophysiological In-Vitro Assay (NaV1.7). The conditions noted are these: Patchliner patch clamp, HEK293, holding at V1/2. The class given is cell-based. In short, it runs like this:
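Automated whole-cell patch clamp at room temperature on HEK293 cells stably expressing hNav1.7 with β1 and β2 subunits. Inactivated-state Ki: cells held at their own V1/2, stepped to −120 mV for 5–10 ms, then to Vmax for 10–20 ms, repeated every 10 s; dose-dependent inhibition analysed.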
(The patch-clamp technique gives a direct electrical read-out from membranes.)

Assay [1] has as its system streptozotocin (STZ)-induced diabetic model. As to the kind of experiment: Streptozotocin (STZ)-Induced Model of Diabetic Neuropathy, behavioral tests. The class given is in vivo, male Sprague-Dawley rats. The conditions noted are these: 30 mg/kg, measured 30 minutes post dose. The procedure:
250-350 g male Sprague-Dawley rats from appropriate animal resources were used. Type I diabetes was induced by a single injection, (intraperitoneally, intravenously or intramuscularly) of 50-100 mg/kg of streptozotocin (STZ, Sigma Chemicals, St. Louis, Mo. or VWR) freshly dissolved in sodium citrate (0.01 M, pH 4.5). Sham animals were given either saline or same vehicle injection. Following a wait time of about two days, inducement of diabetes was confirmed in STZ-injected rats by measuring the plasma glucose concentrations in blood samples from the tail vein after a fast of 6 hours. […] Other parameters (water intake, food intake, and bodyweight) were monitored before the treatment with a test compound and after the cessation of the treatment.
The analgesic effect of the test compound was expressed as a percent recovery (% Recovery) relative to the sham control group baseline and calculated according to the formula: […]
Rats were placed on the glass surface of a thermal testing apparatus (Model 336, IITC/Life Science Instruments, Woodland Hills, Calif.) and were allowed to acclimate for 10 min before testing on the glass surface at room temperature. […] The paw withdrawal latency was recorded by a digital timer. The thermal threshold was determined as the mean withdrawal latency from two to three consecutive trials of both hindpaws. […]

Another assay addresses T2, hNaV1.7 (Homo sapiens, UniProt Q15858).
T2 construct: expressed in transfected cells
As to the kind of experiment: FDSS Membrane Potential In-Vitro Assay. The conditions noted are these: stimulation with veratridine and scorpion venom, read-out: NaV1.7 IC50. In kind it is cell-based.

The next assay concerns the target T3, NaV1.5 (Homo sapiens, UniProt Q14524).
T3 construct: expressed in transfected cells
As to the kind of experiment: Patchliner Electrophysiological In-Vitro Assay (NaV1.5). The class given is cell-based. The conditions noted are these: Patchliner patch clamp, HEK293. The procedure: The recording of sodium current from stable HEK293 cell lines expressing NaV1.7 or NaV1.5 was done on a Patchliner® instrument, Nanion Technologies. The Patchliner® is a fully automated bench-top patch clamp platform and can record simultaneously from up to eight single cells with GΩ seals.
For patch-clamp experiments, cells were grown under standard culturing conditions in Dulbecco's Modified Eagles medium supplemented with 10% fetal bovine serum, glutamine and HEPES. Cells were harvested and kept in suspension for up to 4 hours with no significant change in quality or ability to patch. Whole cell patch clamp recordings were conducted according to Nanion's standard procedure for the Patchliner®. Experiments were conducted at room temperature.
Voltage protocols were designed to establish: 1) peak current amplitude (Imax), 2) test potential (Vmax) and 3) half-inactivation potential (V1/2) for each of the eight individual cells. To determine V1/2, a standard steady-state inactivation protocol was executed using a series of fifteen 500 ms depolarizing pre-pulses in 10 mV increments (starting at −130 mV) and immediately followed by a 10 ms test pulse to Vmax. To estimate test compound affinity to the inactivated state of sodium channel (Ki), the holding potential for each cell was set automatically to the V1/2 calculated from a steady-state inactivation data. The current was activated with the following voltage protocol: holding at V1/2 for 2-5 seconds, return to the −120 mV for 5-10 ms to relieve fast inactivation, stepping to test potential (Vmax) for 10-20 ms. This voltage protocol was repeated every 10 seconds to establish the baseline with 2-3 buffer additions followed by the test compound addition. The dose-dependent inhibition was analyzed using Nanion's Data Analysis Package.

T2 sequence (Q15858 whole entry): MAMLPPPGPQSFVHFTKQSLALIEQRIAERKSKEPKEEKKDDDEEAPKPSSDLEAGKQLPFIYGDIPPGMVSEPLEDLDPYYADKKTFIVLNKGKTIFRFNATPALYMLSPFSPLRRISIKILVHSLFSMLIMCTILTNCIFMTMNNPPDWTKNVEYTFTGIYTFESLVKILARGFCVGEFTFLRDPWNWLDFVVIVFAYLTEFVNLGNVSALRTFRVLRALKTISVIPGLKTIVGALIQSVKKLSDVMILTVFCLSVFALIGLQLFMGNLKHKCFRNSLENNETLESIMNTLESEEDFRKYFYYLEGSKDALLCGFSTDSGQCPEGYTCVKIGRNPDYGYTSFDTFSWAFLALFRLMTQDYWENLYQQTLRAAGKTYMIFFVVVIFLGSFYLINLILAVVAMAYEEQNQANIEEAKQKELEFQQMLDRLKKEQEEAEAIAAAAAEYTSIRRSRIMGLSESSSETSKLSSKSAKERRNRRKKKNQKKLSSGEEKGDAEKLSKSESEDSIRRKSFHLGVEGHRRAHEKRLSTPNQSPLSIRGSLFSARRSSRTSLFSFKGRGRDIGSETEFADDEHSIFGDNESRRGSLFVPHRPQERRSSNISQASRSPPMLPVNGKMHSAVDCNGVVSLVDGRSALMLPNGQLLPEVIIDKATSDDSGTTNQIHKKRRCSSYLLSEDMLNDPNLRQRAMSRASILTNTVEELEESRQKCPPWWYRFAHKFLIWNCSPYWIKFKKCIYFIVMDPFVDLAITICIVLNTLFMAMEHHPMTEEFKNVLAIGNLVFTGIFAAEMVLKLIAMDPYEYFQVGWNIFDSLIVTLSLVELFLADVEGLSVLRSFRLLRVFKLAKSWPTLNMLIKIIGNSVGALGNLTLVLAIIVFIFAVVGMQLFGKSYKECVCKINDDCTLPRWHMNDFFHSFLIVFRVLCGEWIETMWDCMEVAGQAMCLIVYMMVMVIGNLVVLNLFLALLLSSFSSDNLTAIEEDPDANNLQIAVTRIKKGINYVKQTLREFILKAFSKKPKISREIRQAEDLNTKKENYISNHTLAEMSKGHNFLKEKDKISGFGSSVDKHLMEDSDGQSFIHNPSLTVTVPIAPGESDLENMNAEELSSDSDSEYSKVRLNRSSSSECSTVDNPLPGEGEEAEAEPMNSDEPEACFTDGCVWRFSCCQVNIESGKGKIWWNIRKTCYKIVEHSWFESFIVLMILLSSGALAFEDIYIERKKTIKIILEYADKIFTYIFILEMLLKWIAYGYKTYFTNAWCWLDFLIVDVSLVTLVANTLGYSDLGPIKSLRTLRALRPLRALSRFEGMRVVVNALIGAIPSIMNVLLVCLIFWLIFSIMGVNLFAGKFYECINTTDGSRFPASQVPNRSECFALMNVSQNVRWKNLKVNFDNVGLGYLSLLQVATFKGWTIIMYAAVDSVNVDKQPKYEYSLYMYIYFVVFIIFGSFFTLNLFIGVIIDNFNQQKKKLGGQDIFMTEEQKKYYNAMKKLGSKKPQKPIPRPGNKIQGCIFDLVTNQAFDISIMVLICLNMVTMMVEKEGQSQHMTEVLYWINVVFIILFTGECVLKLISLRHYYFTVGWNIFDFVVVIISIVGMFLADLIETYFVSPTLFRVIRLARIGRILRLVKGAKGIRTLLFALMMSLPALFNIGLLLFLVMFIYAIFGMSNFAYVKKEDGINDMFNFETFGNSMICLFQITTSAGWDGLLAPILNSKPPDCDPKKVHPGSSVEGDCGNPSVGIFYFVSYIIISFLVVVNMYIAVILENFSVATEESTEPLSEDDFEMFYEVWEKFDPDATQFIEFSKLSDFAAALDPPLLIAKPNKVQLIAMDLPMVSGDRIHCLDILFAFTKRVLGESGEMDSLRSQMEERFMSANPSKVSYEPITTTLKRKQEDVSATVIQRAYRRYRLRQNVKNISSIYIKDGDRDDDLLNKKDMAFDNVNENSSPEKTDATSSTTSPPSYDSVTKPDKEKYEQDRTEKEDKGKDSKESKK
T2 sequence (Q07699 19-218 partner): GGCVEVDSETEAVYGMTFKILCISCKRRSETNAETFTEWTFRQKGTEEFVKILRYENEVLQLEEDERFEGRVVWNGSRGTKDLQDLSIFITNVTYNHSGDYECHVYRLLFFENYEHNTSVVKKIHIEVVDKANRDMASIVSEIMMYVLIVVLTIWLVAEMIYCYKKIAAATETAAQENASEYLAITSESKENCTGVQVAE
T2 sequence (O60939 30-215 partner): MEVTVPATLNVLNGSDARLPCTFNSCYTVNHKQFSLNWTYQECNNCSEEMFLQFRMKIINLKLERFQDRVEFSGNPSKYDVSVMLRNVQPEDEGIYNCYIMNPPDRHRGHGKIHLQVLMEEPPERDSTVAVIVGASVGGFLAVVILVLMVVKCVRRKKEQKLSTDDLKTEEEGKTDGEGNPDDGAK
T3 sequence (Q14524 whole entry): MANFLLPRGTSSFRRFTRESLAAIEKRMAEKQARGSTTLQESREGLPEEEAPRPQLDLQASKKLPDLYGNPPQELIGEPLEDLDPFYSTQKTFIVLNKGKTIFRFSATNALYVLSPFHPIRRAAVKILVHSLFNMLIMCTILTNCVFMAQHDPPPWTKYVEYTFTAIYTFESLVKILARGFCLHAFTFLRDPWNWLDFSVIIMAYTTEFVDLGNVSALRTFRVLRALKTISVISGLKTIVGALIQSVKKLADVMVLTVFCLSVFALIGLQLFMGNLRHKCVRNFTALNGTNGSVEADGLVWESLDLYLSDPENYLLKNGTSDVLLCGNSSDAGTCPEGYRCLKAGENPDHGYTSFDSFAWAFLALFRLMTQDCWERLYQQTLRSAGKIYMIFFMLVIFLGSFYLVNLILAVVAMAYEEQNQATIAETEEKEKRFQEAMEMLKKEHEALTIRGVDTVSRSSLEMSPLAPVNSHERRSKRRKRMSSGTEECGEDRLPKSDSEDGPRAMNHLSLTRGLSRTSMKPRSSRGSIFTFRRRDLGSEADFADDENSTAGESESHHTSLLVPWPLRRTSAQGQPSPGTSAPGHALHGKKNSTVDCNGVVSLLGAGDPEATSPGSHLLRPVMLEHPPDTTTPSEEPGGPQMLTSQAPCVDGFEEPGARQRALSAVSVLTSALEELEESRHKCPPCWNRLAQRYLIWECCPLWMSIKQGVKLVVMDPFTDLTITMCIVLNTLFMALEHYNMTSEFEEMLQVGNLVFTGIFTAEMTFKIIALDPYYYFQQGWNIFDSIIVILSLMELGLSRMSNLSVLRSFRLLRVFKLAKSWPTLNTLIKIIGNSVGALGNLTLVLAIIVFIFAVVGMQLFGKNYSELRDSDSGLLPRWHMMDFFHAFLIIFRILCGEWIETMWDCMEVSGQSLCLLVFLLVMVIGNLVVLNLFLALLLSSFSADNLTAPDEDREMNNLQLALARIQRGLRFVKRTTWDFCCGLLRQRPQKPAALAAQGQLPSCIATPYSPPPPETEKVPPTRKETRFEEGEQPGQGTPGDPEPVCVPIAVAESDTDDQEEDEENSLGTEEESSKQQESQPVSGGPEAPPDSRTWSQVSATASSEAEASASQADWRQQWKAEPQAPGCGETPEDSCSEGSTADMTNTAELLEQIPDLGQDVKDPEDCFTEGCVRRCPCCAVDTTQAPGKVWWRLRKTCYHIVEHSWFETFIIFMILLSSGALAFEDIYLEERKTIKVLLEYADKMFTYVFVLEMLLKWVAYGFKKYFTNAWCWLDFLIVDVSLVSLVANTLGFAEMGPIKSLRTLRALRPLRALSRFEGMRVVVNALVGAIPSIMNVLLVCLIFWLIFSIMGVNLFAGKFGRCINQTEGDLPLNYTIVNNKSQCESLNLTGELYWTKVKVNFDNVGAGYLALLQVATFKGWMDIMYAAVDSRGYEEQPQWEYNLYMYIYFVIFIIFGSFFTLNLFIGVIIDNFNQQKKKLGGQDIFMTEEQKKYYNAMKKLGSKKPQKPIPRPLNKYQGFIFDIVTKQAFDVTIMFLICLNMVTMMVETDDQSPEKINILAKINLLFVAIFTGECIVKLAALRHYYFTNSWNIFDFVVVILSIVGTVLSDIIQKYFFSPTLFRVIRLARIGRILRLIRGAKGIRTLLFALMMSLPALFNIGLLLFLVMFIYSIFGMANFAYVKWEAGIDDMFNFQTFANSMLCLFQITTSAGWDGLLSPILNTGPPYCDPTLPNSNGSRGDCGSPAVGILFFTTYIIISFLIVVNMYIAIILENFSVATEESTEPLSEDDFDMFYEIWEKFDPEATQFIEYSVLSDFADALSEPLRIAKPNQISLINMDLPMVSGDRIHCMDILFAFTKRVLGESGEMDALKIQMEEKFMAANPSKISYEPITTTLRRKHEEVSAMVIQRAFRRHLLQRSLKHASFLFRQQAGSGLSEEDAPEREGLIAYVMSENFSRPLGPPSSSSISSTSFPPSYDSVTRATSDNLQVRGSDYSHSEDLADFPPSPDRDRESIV
T1 sequence (Q15858 whole entry): as the sequence (Q15858 whole entry) above
T1 sequence (Q07699 19-218 partner): as the sequence (Q07699 19-218 partner) above
T1 sequence (O60939 30-215 partner): as the sequence (O60939 30-215 partner) above

Take `NC(=O)CNCCCc1cc(Cl)ccc1Oc1cc(F)c(S(=O)(=O)Nc2cscn2)cc1Cl` [Compound 49, 2-((3-(5-chloro-2-(2-chloro-5-fluoro-4-(N-(thiazol-4-yl)sulfamoyl)phenoxy)phenyl)propyl)amino)acetamide]: the IC50 is less than 100 nM at NaV1.7; 100 to 500 nM and 500 to 1000 nM at hNaV1.7; more than 10000 nM against NaV1.5. Further, in assay [1], the “effect in the tactile allodynia test” value is on record as “no significant effect”.

Broadly, the IC50 is the concentration that gives 50% inhibition.
